ChEMBL document CHEMBL1128108, “Synthesis and antitumor activity of camptothecin derivatives bearing five-membered heterocycle containing 10-substituents” (1995)
≈ marks a conversion by molar mass, not a printed value.

Tests used:
Assay type in all cases: functional
[1] = tested on: HCT-116; assay: In vitro cytotoxicity assay was measured against human tumor HCT116 cell line using camptothecin as a standard; conditions: read-out: TD50 (the source's name)
[2] = tested on: L1210/Adr; assay: In vitro cytotoxicity assay was measured against human tumor L1210/Adr cell line using camptothecin as a standard; conditions: Mus musculus, read-out: TD50 (the source's name)
[3] = tested on: KB; assay: In vitro cytotoxicity assay was measured against human tumor KB cell line using camptothecin as a standard; conditions: read-out: TD50 (the source's name)
[4] = tested on: L1210; assay: In vitro cytotoxicity assay was measured against human tumor L1210 cell line using camptothecin as a standard; conditions: Mus musculus, read-out: TD50 (the source's name)
[5] = tested on: MCF7; assay: In vitro cytotoxicity assay was measured against human tumor MCF-7 cell line using camptothecin as a standard; conditions: read-out: TD50 (the source's name)
[6] = tested on: L1210; assay: In vitro cytotoxicity assay was measured against human tumor L1210 cell line; conditions: Mus musculus, read-out: TD50 (the source's name)
[7] = tested on: L1210/Adr; assay: In vitro cytotoxicity assay was measured against human tumor L1210/Adr cell line; conditions: Mus musculus, read-out: TD50 (the source's name)
[8] = tested on: KB; assay: In vitro cytotoxicity assay was measured against human tumor KB cell line; conditions: read-out: TD50 (the source's name)
[9] = tested on: MCF7; assay: In vitro cytotoxicity assay was measured against human tumor MCF-7 cell line; conditions: read-out: TD50 (the source's name)
[10] = tested on: HCT-116; assay: In vitro cytotoxicity assay was measured against human tumor HCT116 cell line; conditions: read-out: TD50 (the source's name)

Structure (SMILES)	CC50 [1]	CC50 [2]	CC50 [3]	CC50 [4]	CC50 [5]	CC50 [6]	CC50 [7]	CC50 [8]	CC50 [9]	CC50 [10]
CCC1(O)C(=O)OCc2c1cc1n(c2=O)Cc2cc3cc(OCCNC(=O)S(=O)(=O)c4cccs4)ccc3nc2-1 (stereo not given)	0.01 ng/mL (≈ 0.0172 nM)	0.1 ng/mL (≈ 0.172 nM)	0.5 ng/mL (≈ 0.86 nM)	0.085 ng/mL (≈ 0.146 nM)	100 ng/mL (≈ 172 nM)					
CCC1(O)C(=O)OCc2c1cc1n(c2=O)Cc2cc3cc(OCCNC(=O)c4ccc[nH]4)ccc3nc2-1 (stereo not given)	0.01 ng/mL (≈ 0.02 nM)	1 ng/mL (≈ 2 nM)	0.4 ng/mL (≈ 0.799 nM)	0.1 ng/mL (≈ 0.2 nM)	260 ng/mL (≈ 519 nM)					
CCC1(O)C(=O)OCc2c1cc1n(c2=O)Cc2cc3cc(OCCNC(=O)C4CCCO4)ccc3nc2-1 (stereo not given)	55 ng/mL (≈ 109 nM)	320 ng/mL (≈ 633 nM)	69 ng/mL (≈ 136 nM)	50 ng/mL (≈ 98.9 nM)	900 ng/mL (≈ 1780 nM)					
CCC1(O)C(=O)OCc2c1cc1n(c2=O)Cc2cc3cc(OCCNC(=O)c4cccs4)ccc3nc2-1 (stereo not given)	0.04 ng/mL (≈ 0.0773 nM)	1.5 ng/mL (≈ 2.9 nM)	0.5 ng/mL (≈ 0.966 nM)	0.1 ng/mL (≈ 0.193 nM)	68 ng/mL (≈ 131 nM)					
CCC1(O)C(=O)OCc2c1cc1n(c2=O)Cc2cc3cc(OCCNC(=O)c4cccn4COC)ccc3nc2-1 (stereo not given)	0.7 ng/mL (≈ 1.29 nM)	15 ng/mL (≈ 27.5 nM)	5 ng/mL (≈ 9.18 nM)	1 ng/mL (≈ 1.84 nM)	120 ng/mL (≈ 220 nM)					
CCC1(O)C(=O)OCc2c1cc1n(c2=O)Cc2cc3cc(OCCNC(=O)c4nccn4COC)ccc3nc2-1 (stereo not given)	3 ng/mL (≈ 5.5 nM)	10 ng/mL (≈ 18.3 nM)	7 ng/mL (≈ 12.8 nM)	2 ng/mL (≈ 3.67 nM)	750 ng/mL (≈ 1370 nM)					
CCC1(O)C(=O)OCc2c1cc1n(c2=O)Cc2cc3cc(OCCNC(=O)c4cccn4C)ccc3nc2-1 (stereo not given)	0.01 ng/mL (≈ 0.0194 nM)	0.95 ng/mL (≈ 1.85 nM)	0.5 ng/mL (≈ 0.972 nM)	0.2 ng/mL (≈ 0.389 nM)	140 ng/mL (≈ 272 nM)					
CCC1(O)C(=O)OCc2c1cc1n(c2=O)Cc2cc3cc(OCCNC(=O)c4ccco4)ccc3nc2-1 (stereo not given)	1 ng/mL (≈ 1.99 nM)	15 ng/mL (≈ 29.9 nM)	5 ng/mL (≈ 9.97 nM)	4 ng/mL (≈ 7.98 nM)	820 ng/mL (≈ 1640 nM)					
CCC1(O)C(=O)OCc2c1cc1n(c2=O)Cc2cc3cc(OCCNC(=O)/C=C/c4ccco4)ccc3nc2-1 (stereo not given)	65 ng/mL (≈ 123 nM)	140 ng/mL (≈ 265 nM)	83 ng/mL (≈ 157 nM)	50 ng/mL (≈ 94.8 nM)	1000 ng/mL (≈ 1900 nM)					
CC[C@@]1(O)C(=O)OCc2c1cc1n(c2=O)Cc2cc3ccccc3nc2-1 [CAMPTOTHECIN]						10 ng/mL (≈ 28.7 nM)	45 ng/mL (≈ 129 nM)	8 ng/mL (≈ 23 nM)	10 ng/mL (≈ 28.7 nM)	6 ng/mL (≈ 17.2 nM)
COc1cccc2c1C(=O)c1c(O)c3c(c(O)c1C2=O)C[C@@](O)(C(=O)CO)C[C@@H]3O[C@H]1C[C@H](N)[C@H](O)[C@H](C)O1 [DOXORUBICIN]	30 ng/mL (≈ 55.2 nM)	400 ng/mL (≈ 736 nM)	15 ng/mL (≈ 27.6 nM)	6 ng/mL (≈ 11 nM)	150 ng/mL (≈ 276 nM)					
